Reference: patent publication US10597388B2, “Pyridazinone herbicides” (FMC CORPORATION, priority 2014, dated 2020)

What was measured:
Type in all cases: in vivo
soybean (Glycine max) = experiment: Test E greenhouse herbicide test, pre- and postemergence
Description: Seeds of plant species selected from corn (Zea mays), soybean (Glycine max), velvetleaf (Abutilon theophrasti), lambsquarters (Chenopodium album), wild poinsettia (Euphorbia heterophylla), pigweed, palmer (palmer pigweed, Amaranthus palmeri), waterhemp (common waterhemp, Amaranthus rudis), surinam grass (Brachiaria decumbens), crabgrass, large (large crabgrass, Digitaria sanguinalis), crabgrass, Brazilian (Brazilian crabgrass, Digitaria horizontalis), panicum, fall (fall panicum, Panicum dichotomiflorum), foxtail, giant (giant foxtail, Setaria faberii), foxtail, green (green foxtail, Setaria viridis), goosegrass (Eleusine indica), johnsongrass (Sorghum halepense), ragweed (common ragweed, Ambrosia elatior), barnyardgrass (Echinochloa crus-galli), sandbur (southem sandbur, Cenchrus echinatus), arrowleaf sida (Sida rhombifolia), Italian ryegrass (Lolium multiflorum), dayflower (Virginia (VA) dayflower, Commelina virginica), field bindweed (Convolvulus arvensis), momingglory (Ipomoea coccinea), nightshade (eastern black nightshade, Solanum ptycanthum), kochia (Kochia scoparia), nutsedge, yellow (yellow nutsedge, Cyperus esculentus), horseweed (Conyza canadensis), and beggarticks (hairy beggarticks, Bidens pilosa), were planted into a silt loam soil and treated preemergence with test chemicals formulated in a non-phytotoxic solvent mixture which included a surfactant.
At the same time, plants from these crop and weed species and also waterhemp_RES1, (ALS & Triazine resistant common waterhemp, Amaranthus rudis), and waterhemp_RES2, (ALS & HPPD resistant common waterhemp, Amaranthus rudis) were planted in pots containing Redi-Earth® planting medium (Scotts Company, 14111 Scottslawn Road, Marysville, Ohio 43041) comprising spaghnum peat moss, vermiculite, wetting agent and starter nutrients were treated with postemergence applications of test chemicals formulated in the same manner. Plants ranged in height from 2 to 18 cm for postemergence treatments (1- to 4-leaf stage). Treated plants and controls were maintained in a greenhouse for 14 to 21 d, after which time all species were compared to controls and visually evaluated. Plant response ratings, summarized in Table E, are based on a scale of 0 to 100 where 0 is no effect and 100 is complete control. A dash (-) response means no test result.

[1] = test system: foxtail, giant (giant foxtail, Setaria faberii); experiment: Test A greenhouse herbicide test, pre- and postemergence
Summary of the method: (§1)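 Seeds in loam–sand blend received a preemergence directed soil spray; plants at 2–10 cm, one- to two-leaf stage, received postemergence sprays. Compounds in a non-phytotoxic solvent with surfactant. After about 10 d in a greenhouse, injury rated visually versus untreated controls on a 0–100 scale (100 = complete control).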

corn (Zea mays) = experiment: as above; settings: Postemergence; for Plant response rating, Corn: 125 g ai/ha, 0 to 100 scale where 0 is no effect and 100 is complete control; for Corn plant response rating: 500 g ai/ha, 0 to 100 scale, 0 is no effect, 100 is complete control
Summary of the method: as §1

[2] = test system: pigweed (Amaranthus retroflexus); experiment: as above
Summary of the method: as §1

[3] = test system: ragweed (common ragweed, Ambrosia elatior); experiment: as above
Summary of the method: as §1

[4] = test system: ryegrass, Italian (Italian ryegrass, Lolium multiflorum); experiment: as above
Summary of the method: as §1

kochia (Kochia scoparia) = experiment: as above
Summary of the method: as §1

[5] = test system: barnyardgrass (Echinochloa crus-galli); experiment: as above
Summary of the method: as §1

[6] = test system: wheat (Triticum aestivum); experiment: as above; settings: Postemergence; for Plant response rating, Wheat: 125 g ai/ha, 0 to 100 scale where 0 is no effect and 100 is complete control; for Wheat plant response rating: 500 g ai/ha, 0 to 100 scale, 0 is no effect, 100 is complete control
Summary of the method: as §1

[7] = 62 g ai/ha, Postemergence, scale 0 to 100 (0 no effect, 100 complete control)
[8] = 62 g ai/ha, Preemergence, scale 0 to 100 (0 no effect, 100 complete control)
[9] = 125 g ai/ha, Postemergence, scale 0 to 100 (0 no effect, 100 complete control)
[10] = 125 g ai/ha, Preemergence, scale 0 to 100 (0 no effect, 100 complete control)
[11] = 250 g ai/ha, Postemergence, scale 0 to 100 (0 no effect, 100 complete control)
[12] = Postemergence, 31 g ai/ha, visual, scale 0 no effect to 100 complete control
[13] = Preemergence, 31 g ai/ha, scale 0 to 100, 0 no effect, 100 complete control
[14] = Preemergence, 250 g ai/ha, visual, scale 0 no effect to 100 complete control
[15] = Postemergence, 125 g ai/ha, 0 to 100 scale where 0 is no effect and 100 is complete control
[16] = Postemergence, 500 g ai/ha, 0 to 100 scale, 0 is no effect, 100 is complete control
[17] = Preemergence, 125 g ai/ha, 0 to 100 scale where 0 is no effect and 100 is complete control
[18] = Preemergence, 500 g ai/ha, 0 to 100 scale where 0 is no effect and 100 is complete control
[19] = Preemergence, 500 g ai/ha, 0 to 100 scale, 0 no effect, 100 complete control

Row | SMILES | Plant response rating, Soybean (soybean (Glycine max); [7]) | Plant response rating, Soybean (soybean (Glycine max); [8]) | Plant response rating, Soybean (soybean (Glycine max); [9]) | Plant response rating, Soybean (soybean (Glycine max); [10]) | Plant response rating, Soybean (soybean (Glycine max); [11]) | Plant response rating, Soybean (soybean (Glycine max); [12]) | Plant response rating, Soybean (soybean (Glycine max); [13]) | Plant response rating, Soybean (soybean (Glycine max); [14]) | Plant response rating, Foxtail, Giant [1, 15] | Foxtail, Giant plant response rating [1, 16] | Foxtail, Giant plant response rating [1, 17] | Plant response rating, Foxtail, Giant [1, 18] | Plant response rating, Corn (corn (Zea mays)) | Corn plant response rating (corn (Zea mays)) | Plant response rating, Pigweed [2, 15] | Pigweed plant response rating [2, 16] | Pigweed plant response rating [2, 17] | Plant response rating, Pigweed [2, 18] | Plant response rating, Ragweed [3, 15] | Ragweed plant response rating [3, 16] | also measured
1 | Cc1ccc2ccccc2c1-c1c(OC(=O)OC(C)C)c(C)nn(C)c1=O [Compound 72] | 30 | 0 | 30 | 0 | 50 | 25 | 0 | 15 | 30 | 90 | 70 | 100 | 20 | 40 | 90 | 90 | 100 | 100 | 70 | 90 | Ragweed plant response rating [3, 17]: 90; Plant response rating, Ragweed [3, 18]: 90; Plant response rating, Ryegrass, Italian [4, 15]: 100; Ryegrass, Italian plant response rating [4, 16]: 100; Ryegrass, Italian plant response rating [4, 17]: 100; Plant response rating, Ryegrass, Italian [4, 18]: 100; Plant response rating, Kochia (kochia (Kochia scoparia); [15]): 60; Kochia plant response rating (kochia (Kochia scoparia); [16]): 90; Kochia plant response rating (kochia (Kochia scoparia); [17]): 50; Plant response rating, Kochia (kochia (Kochia scoparia); [18]): 100; Plant response rating, Barnyardgrass [5, 15]: 20; Barnyardgrass plant response rating [5, 16]: 60; Barnyardgrass plant response rating [5, 17]: 10; Plant response rating, Barnyardgrass [5, 19]: 100; Plant response rating, Wheat [6]: 20; Wheat plant response rating [6]: 70
2 | Cc1nn(C)c(=O)c(-c2ccc(Br)c3ccccc23)c1O [Compound 75] | 70 | 35 | 70 | 40 | 75 | 70 | 0 | 70 | 50 | 50 | 50 | 90 | 0 | 20 | 30 | 50 | 100 | 100 | 60 | 90 | Ragweed plant response rating [3, 17]: 70; Plant response rating, Ragweed [3, 18]: 90; Plant response rating, Ryegrass, Italian [4, 15]: 90; Ryegrass, Italian plant response rating [4, 16]: 100; Ryegrass, Italian plant response rating [4, 17]: 100; Plant response rating, Ryegrass, Italian [4, 18]: 100; Plant response rating, Kochia (kochia (Kochia scoparia); [15]): 80; Kochia plant response rating (kochia (Kochia scoparia); [16]): 90; Kochia plant response rating (kochia (Kochia scoparia); [17]): 80; Plant response rating, Kochia (kochia (Kochia scoparia); [18]): 90; Plant response rating, Barnyardgrass [5, 15]: 0; Barnyardgrass plant response rating [5, 16]: 60; Barnyardgrass plant response rating [5, 17]: 40; Plant response rating, Barnyardgrass [5, 19]: 80; Plant response rating, Wheat [6]: 0; Wheat plant response rating [6]: 20
